Laboratory results reported in the supplement of paper PMC13207355.
± gives the standard deviation of the averaged measurements.

What was measured:
Settings in all cases: exposure time: 72 h
[1] = system: E28 (patient-derived glioblastoma stem cells of classical subtype); test: surviving fraction (nuclei count normalised to DMSO); higher = more cells surviving (less toxic)
[2] = system: E34 (patient-derived glioblastoma stem cells of proneural subtype); test: as above
[3] = system: E13 (patient-derived glioblastoma stem cells of classical subtype); test: as above
[4] = system: E21 (patient-derived glioblastoma stem cells of mesenchymal subtype); test: as above
[5] = system: FT3469 (normal neural stem cell line); test: as above
[6] = system: E57 (patient-derived glioblastoma stem cells of mesenchymal subtype); test: as above
[7] = system: E28; test: phenotypic distance (Euclidean, principal components) from DMSO controls (arbitrary units); higher = stronger morphological change
[8] = system: E34; test: as above
[9] = system: E13; test: as above
[10] = system: E21; test: as above
[11] = system: FT3469; test: as above
[12] = system: E57; test: as above
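Wherever phenotypic distance (Euclidean, principal components) from DMSO controls is given: cell Painting imaging in 384-well plates, CellProfiler features reduced to at least 20 principal components, Euclidean distance versus same-plate DMSO vehicle wells (0.1% v/v), median over six images per well.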
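Wherever surviving fraction (nuclei count normalised to DMSO) is given: nuclei counted by high-content imaging of Hoechst-stained cells in laminin-coated 384-well plates, relative to 0.1% DMSO vehicle wells, with staurosporine as cell-death control.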

O=C(/C=C/c1cccnc1)NCCCCC1CCN(C(=O)c2ccccc2)CC1 [Daporinad]
Settings	phenotypic distance	surviving fraction
[1], 4.1 nM	–	0.436 ± 0.0093
[1], 12.3 nM	–	0.459 ± 0.097
[1], 37 nM	–	0.4196 ± 0.0027
[1], 111.1 nM	–	0.415 ± 0.077
[1], 333.3 nM	–	0.423 ± 0.068
[1], 1000 nM	–	0.351 ± 0.043
[1], 3000 nM	–	0.379 ± 0.041
[2], 4.1 nM	–	1.02 ± 0.083
[2], 12.3 nM	–	0.865 ± 0.013
[2], 37 nM	–	0.916 ± 0.077
[2], 111.1 nM	–	0.851 ± 0.11
[2], 333.3 nM	–	0.922 ± 0.24
[2], 1000 nM	–	0.8551 ± 0.004
[2], 3000 nM	–	1.04 ± 0.12
[3], 4.1 nM	–	0.897 ± 0.13
[3], 12.3 nM	–	0.759 ± 0.11
[3], 37 nM	–	0.712 ± 0.075
[3], 111.1 nM	–	0.732 ± 0.054
[3], 333.3 nM	–	0.779 ± 0.021
[3], 1000 nM	–	0.738 ± 0.036
[3], 3000 nM	–	0.728 ± 0.03
[4], 4.1 nM	–	0.918 ± 0.067
[4], 12.3 nM	–	0.977 ± 0.075
[4], 37 nM	–	1.06 ± 0.13
[4], 111.1 nM	–	0.924 ± 0.098
[4], 333.3 nM	–	0.916 ± 0.055
[4], 1000 nM	–	0.916 ± 0.0031
[4], 3000 nM	–	0.873 ± 0.021
[5], 4.1 nM	–	0.8405 ± 0.0025
[5], 12.3 nM	–	0.956 ± 0.049
[5], 37 nM	–	0.831 ± 0.087
[5], 111.1 nM	–	0.93 ± 0.14
[5], 333.3 nM	–	0.899 ± 0.029
[5], 1000 nM	–	0.892 ± 0.048
[5], 3000 nM	–	0.975 ± 0.018
[6], 4.1 nM	–	0.731 ± 0.057
[6], 12.3 nM	–	0.677 ± 0.093
[6], 37 nM	–	0.693 ± 0.032
[6], 111.1 nM	–	0.71 ± 0.017
[6], 333.3 nM	–	0.668 ± 0.09
[6], 1000 nM	–	0.562 ± 0.029
[6], 3000 nM	–	0.621 ± 0.029
[7], 4.1 nM	3.04 ± 0.13	–
[7], 12.3 nM	3.29 ± 0.61	–
[7], 37 nM	3.514 ± 0.027	–
[7], 111.1 nM	3.26 ± 0.39	–
[7], 333.3 nM	3.25 ± 0.5	–
[7], 1000 nM	3.51 ± 0.1	–
[7], 3000 nM	3.47 ± 0.57	–
[8], 4.1 nM	1.25 ± 0.28	–
[8], 12.3 nM	1.37 ± 0.25	–
[8], 37 nM	1.45 ± 0.064	–
[8], 111.1 nM	1.6 ± 0.06	–
[8], 333.3 nM	1.35 ± 0.073	–
[8], 1000 nM	2.32 ± 1.2	–
[8], 3000 nM	1.37 ± 0.12	–
[9], 4.1 nM	1.28 ± 1.1	–
[9], 12.3 nM	2.03 ± 0.12	–
[9], 37 nM	2.19 ± 0.043	–
[9], 111.1 nM	2.19 ± 0.12	–
[9], 333.3 nM	2.17 ± 0.12	–
[9], 1000 nM	2.27 ± 0.04	–
[9], 3000 nM	2.04 ± 0.04	–
[10], 4.1 nM	0.674 ± 0.033	–
[10], 12.3 nM	0.879 ± 0.058	–
[10], 37 nM	1.12 ± 0.32	–
[10], 111.1 nM	1.73 ± 0.97	–
[10], 333.3 nM	2.59 ± 0.067	–
[10], 1000 nM	2.69 ± 0.2	–
[10], 3000 nM	2.46 ± 0.37	–
[11], 4.1 nM	2.48 ± 0.79	–
[11], 12.3 nM	2 ± 0.25	–
[11], 37 nM	2.62 ± 0.48	–
[11], 111.1 nM	2.52 ± 0.32	–
[11], 333.3 nM	2.17 ± 0.041	–
[11], 1000 nM	2.56 ± 0.32	–
[11], 3000 nM	2.25 ± 0.23	–
[12], 4.1 nM	2.92 ± 0.05	–
[12], 12.3 nM	3.204 ± 0.027	–
[12], 37 nM	3.213 ± 0.0053	–
[12], 111.1 nM	3.31 ± 0.052	–
[12], 333.3 nM	3.19 ± 0.18	–
[12], 1000 nM	3.44 ± 0.39	–
[12], 3000 nM	3.491 ± 0.027	–

Cc1cc(Nc2cc(CN3CCOCC3)c3nc(C)c(Cc4ccc(Cl)cc4F)n3n2)n[nH]1 [Gandotinib]
Settings	phenotypic distance	surviving fraction
[1], 4.1 nM	–	1.03 ± 0.024
[1], 12.3 nM	–	0.979 ± 0.075
[1], 37 nM	–	1.06 ± 0.019
[1], 111.1 nM	–	1.02 ± 0.091
[1], 333.3 nM	–	0.865 ± 0.13
[1], 1000 nM	–	0.673 ± 0.059
[1], 3000 nM	–	0.335 ± 0.004
[2], 4.1 nM	–	0.94 ± 0.011
[2], 12.3 nM	–	0.77 ± 0.079
[2], 37 nM	–	0.6589 ± 0.0013
[2], 111.1 nM	–	0.511 ± 0.065
[2], 333.3 nM	–	0.44 ± 0.049
[2], 1000 nM	–	0.4 ± 0.016
[2], 3000 nM	–	0.316 ± 0.016
[3], 4.1 nM	–	1.02 ± 0.093
[3], 12.3 nM	–	0.923 ± 0.012
[3], 37 nM	–	0.933 ± 0.02
[3], 111.1 nM	–	0.946 ± 0.038
[3], 333.3 nM	–	0.818 ± 0.03
[3], 1000 nM	–	0.791 ± 0.045
[3], 3000 nM	–	0.626 ± 0.02
[4], 4.1 nM	–	1.07 ± 0.078
[4], 12.3 nM	–	1.02 ± 0.018
[4], 37 nM	–	1.03 ± 0.049
[4], 111.1 nM	–	0.918 ± 0.025
[4], 333.3 nM	–	0.724 ± 0.0084
[4], 1000 nM	–	0.505 ± 0.012
[4], 3000 nM	–	0.164 ± 0.071
[5], 4.1 nM	–	0.931 ± 0.1
[5], 12.3 nM	–	0.889 ± 0.023
[5], 37 nM	–	0.969 ± 0.014
[5], 111.1 nM	–	0.97 ± 0.044
[5], 333.3 nM	–	0.9328 ± 0.0038
[5], 1000 nM	–	0.806 ± 0.068
[5], 3000 nM	–	0.584 ± 0.046
[6], 4.1 nM	–	1.061 ± 0.009
[6], 12.3 nM	–	0.946 ± 0.027
[6], 37 nM	–	0.903 ± 0.097
[6], 111.1 nM	–	0.781 ± 0.028
[6], 333.3 nM	–	0.534 ± 0.032
[6], 1000 nM	–	0.42 ± 0.029
[6], 3000 nM	–	0.193 ± 0.047
[7], 4.1 nM	0.402 ± 0.081	–
[7], 12.3 nM	0.536 ± 0.22	–
[7], 37 nM	0.979 ± 0.057	–
[7], 111.1 nM	1.01 ± 0.12	–
[7], 333.3 nM	1.15 ± 0.086	–
[7], 1000 nM	1.63 ± 0.33	–
[7], 3000 nM	3.72 ± 0.25	–
[8], 4.1 nM	1.52 ± 0.43	–
[8], 12.3 nM	2.31 ± 0.2	–
[8], 37 nM	3.63 ± 0.68	–
[8], 111.1 nM	5.44 ± 0.36	–
[8], 333.3 nM	7.1 ± 0.9	–
[8], 1000 nM	7.41 ± 0.58	–
[8], 3000 nM	7.42 ± 0.59	–
[9], 4.1 nM	0.676 ± 0.052	–
[9], 12.3 nM	0.87 ± 0.42	–
[9], 37 nM	0.987 ± 0.23	–
[9], 111.1 nM	1.47 ± 0.41	–
[9], 333.3 nM	1.57 ± 0.083	–
[9], 1000 nM	1.9 ± 0.19	–
[9], 3000 nM	2.7 ± 0.044	–
[10], 4.1 nM	1.3 ± 0.8	–
[10], 12.3 nM	0.9953 ± 0.0043	–
[10], 37 nM	1.34 ± 0.25	–
[10], 111.1 nM	1.92 ± 0.29	–
[10], 333.3 nM	2.89 ± 0.21	–
[10], 1000 nM	4.83 ± 0.15	–
[10], 3000 nM	9.25 ± 0.9	–
[11], 4.1 nM	0.44 ± 0.23	–
[11], 12.3 nM	0.627 ± 0.28	–
[11], 37 nM	0.479 ± 0.12	–
[11], 111.1 nM	1.67 ± 1.5	–
[11], 333.3 nM	0.785 ± 0.077	–
[11], 1000 nM	0.863 ± 0.31	–
[11], 3000 nM	2.05 ± 0.44	–
[12], 4.1 nM	0.653 ± 0.12	–
[12], 12.3 nM	0.688 ± 0.39	–
[12], 37 nM	1.33 ± 0.22	–
[12], 111.1 nM	1.76 ± 0.15	–
[12], 333.3 nM	2.18 ± 0.16	–
[12], 1000 nM	2.93 ± 0.22	–
[12], 3000 nM	5.26 ± 0.74	–
